Results on 2 compounds are retold here after patent publication US20220245798A1, “TISSUE STEM CELL COUNTING […] USES THEREOF” (Asymmetrex LLC, priority 2021, published 2022).

The data set deals with HSCs in CD34+-selected normal human bone marrow cells. Briefly: PSCK-RIFS tissue stem cell counting and cell kinetics determination, serial culture of BM-CD34+ cells with stem cell-active agents. It is filed as cell-based. Particulars: for Committed Progenitor Cells CC Time / Stem Cells Asym CC Time / Stem Cells SSR Rate, RS / Stem Cells Sym CC Time / Stem Cells Initial Fraction: BM-CD34+ serial culture, agent supplemented at all times; for Committed Progenitor Cells CC Time / Stem Cells Asym CC Time / Stem Cells SSR Rate, RS / Stem Cells Sym CC Time: mean of n=5; for Stem Cells Initial Fraction: mean of n=5 PSCK-RIFS determinations. The source says: Strain WI-38 pre-senescent human lung cells were purchased from the American Type Culture Collection (Manassas, Va., USA; ATCC #CCL-75; passage 15). Expanded human liver stem cell strain SACK-XS 12(3) was purchased from Kerafast (Boston, Mass., USA; #EJS002). CD34+-selected normal human bone marrow cells were purchased from the ATCC (#PCS-800-012). CD34+-selected human umbilical cord blood cells were purchased from STEMCELL Technologies, Inc. (Cat#70008; Cambridge, Mass.).
Expanded human liver stem cell strain SACK-XS 12(3) cells were cultured in the supplier's recommended culture medium without inclusion of xanthosine. CD34+-selected normal human bone marrow cells were cultured in StemSpan™ SFEM II medium (STEMCELL Technologies, Inc., Cambridge, Mass., USA; #09655) supplemented with StemSpan™ CD34+ Expansion Supplement (STEMCELL Technologies, Inc., #02691). SACK-XS 12(3) serial cultures were initiated in 6-well plates with 325,000 viable cells. CD34+ cell serial cultures were initiated as 24-well suspension cultures with 65,000 viable cells. For both cell types, ⅓ of total cells were transferred to a new culture well every 96±4 hour interval. Tested agents were supplemented at all times during the culture period.
Based on the determined stem cell symmetric self-renewal frequency (RS), in the early studies presented herein a correction was applied to account for this effect. The correction is determined by the following Equation 1:
NSo corrected=NS1st interval/(RSe^kt+RA−RDS) (Equation 1)
In Equation 1, NS1st interval=NS peak value determined from the initial interval of PSCK; t=the time to the first interval NS peak in the respective simulation; k=ln 2/GTS, the mean generation time for symmetrically self-renewing stem cells; RS, RA, and RDS are mean cell kinetics factors determined by the originating PSCK-RIFS analysis (See EXAMPLE 4). The mean of 10 independent PSCK NS simulations was used for correction. Equation 1 was applied to determine the initial stem cell fraction whenever a significant RS value was found.
The simulation confidence level was estimated from the root mean squared error of the comparison of simulated cumulative population doubling (CPD) data to experimental CPD data. Student's t-test (2-tailed) was used to calculate p-values for confidence for cell kinetics factors determined by the PSCK-RIFS software (See also EXAMPLE 4) with respect to 0.0 and their 95% confidence intervals. Student's t-test (2-tailed) was also used to calculate p-values for confidence for differences in the value of cell kinetics factors derived under different culture conditions.
FIGS. 1 and 11 outline the application of the PSCK-RIFS software. A tissue cell preparation of interest is first counted (including viable cell determination; NC in Table 5) and used to initiate serial cultures, typically in triplicate.
At an experimenter defined interval (SPLI in Table 5), cultures are counted—including viable cell count—and a constant fraction of the cells or number of the cells is transferred to a new culture dish of the same type (FIG. 11). The PSCK software is designed to be versatile for accommodating different formats for the culture time period and/or the number of cells transferred. The total cell count data are transformed into plots of cumulative population doublings (CPD); and the viable cell fraction is used to estimate the dead cell fractions for transient cells (RDT in Table 5) and terminal cells (RDTM in Table 5), which are similarly very abundant during most of the culture period.
FIG. 1 depicts the various inputs that are used by the PSCK software to calculate CPD curve simulations for the period defined by the experimental CPD data. Using the cellular model illustrated in FIG. 1, the software inputs measured values (“m” superscripted in FIG. 1) and discovered factors (“d” superscripted in FIG. 1) obtained from the RIFS software. An important aspect of the PSCK-RIFS method is that there is no underlying mathematical algorithm. […]

`O=NN(CCCl)C(=O)NCCCl` [BCNU, bis-chloroethylnitrosourea]: the “Committed Progenitor Cells CC Time” value is 6.4 h (NS); the “Stem Cells Asym CC Time” value was 7.6 (NS) h; the “Stem Cells SSR Rate, RS” value was 0.0 (NS); the “Stem Cells Sym CC Time” value is listed as 8.2 h (NS). Moreover, the “Stem Cells Initial Fraction” value was 1.3 × 10^−4 (0.001). Further, the “change in determined HSC number” value (within the first four days of culture) is “decrease”.
Consider `O=c1[nH]c(=O)c2ncn([C@@H]3O[C@H](CO)[C@@H](O)[C@H]3O)c2[nH]1` [Xanthosine, xanthosine], for which the “Committed Progenitor Cells CC Time” value is listed as 8.2 h (NS); the “Stem Cells Asym CC Time” value is listed as 6.6 h (NS); the “Stem Cells SSR Rate, RS” value is on record as 3.2 × 10^−3 (0.037); the “Stem Cells Sym CC Time” value was 9.4 h (NS). Also, the “Stem Cells Initial Fraction” value is 3.5 × 10^−3 (0.001). The “change in stem cell fraction of supplemented cultures” value (BM-CD34+ cultures) is listed as “increases”. Besides, the “increase in HSC number” value (after only 4 days of culture) turned out to be 10 fold. Besides, the “RS, rate of symmetric self-renewal, of HSC divisions” value (increase from undetectable, p=0.037) is reported as 0.32%.
